Measured values: patent US6291442A, “Pharmacological modulators of voltage-gated potassium ion channels” (The General Hospital Corporation, priority 1999, dated 2001)
“Also recorded” adds a separate entry of the source. Where two headings read alike, the source gives them in different places.

How the values were obtained:
[1] = system: Drosophila Shaker H4 potassium ion channels; assay: Patch voltage clamp recording, time course of channel closure (deactivation); conditions: for Approximate Decrease in Time Course of Closure: test compound 0.5 mM, compared to closure in the absence of test compound; for Approximate Increase in Time Course of Closure: shaker h4 channel patch, 500 µM; for effect on the closing of the ion channel: FIG. 3 and 4
Excerpt: Standard patch recording methods were used to record potassium channel currents from the transfected cells (Hamill, O. P., Marty, A., Neher, E., Sakmann, B., and Sigworth, F. J., Pfluegers Arch(1981), 391:85, the entire teachings of which are incorporated herein by reference). If expression was sufficiently high, the excised inside-out or excised outside-out recording configurations was used; otherwise the whole cell recording configuration was used. […] Standard extracellular saline was used in the recording pipette, and standard intracellular saline was perfused on the exposed side, or bath side, of the membrane. Test compounds were added to the intracellular saline at the concentration specified.
For recording the time course of channel activation and deactivation, voltage clamp steps were applied from a resting potential of -80 to -100 mV to an activation potential of between -60 and +60 mV; after these activating steps (lasting 5-100 ms in duration), the voltage was returned to a potential of between -120 and -60 mV to monitor the time course of closure, or de-activation, of the channels. Standard experimental solutions contained, in mM: 150 NaCl, 10 KCl, 3 CaCl2, 1 MgCl2, and 10 HEPES, at pH 7.4 in the pipette solution; and 160 KCl, 0.5 MgCl2, 1 EGTA, and 10 HEPES, at pH 7.4 in the bath solution. Solutions with Cd^2+ contained no EGTA.
In Table I, II and III, the time course of closure of Drosophila Shaker H4 potassium ion channels was measured in the presence of a test compound and compared to the time course of closure in the absence of a test compound.

[2] = system: Shaker class voltage-gated potassium ion channels
Procedure: At a depolarizing pulse of +60 mV, the steady state blockade of current caused by channel-blockers was measured as the current in the presence of the channel-blocker divided by the current in the absence of the channel-blocker.

[3] = system: Drosophila Shaker H4 potassium ion channels; assay: Application to intracellular (inside-out patch) versus extracellular (outside-out patch) side of the membrane; format: cell-based; conditions: inside-out versus outside-out excised patch
Procedure: Compounds were applied to the intracellular side of the cell membrane by adding the compound to the solution bathing the exposed face of an excised inside-out patch containing Drosophila Shaker H4 potassium ion channels. Application to the extracellular side of the membrane was performed by adding the compound to the solution bathing the exposed face of an excised outside-out patch containing Drosophila Shaker H4 potassium ion channels.

[4] = inside-out excised patch voltage clamp

Row | Approximate Increase in Time Course of Closure [1] | SMILES | Approximate Decrease in Time Course of Closure [1] | also measured
1 | 2 X | Cc1ccc(C(=O)c2ccccc2C(=O)O)cc1 [2-(p-toluoyl)benzoic] | – | –
2 | 2 X | Nc1cc(C(=O)c2ccccc2C(=O)O)ccc1Cl [2-(3-amino-4-chlorobenzoyl)benzoic acid] | – | –
3 | 9 X | Nc1cccc(C(=O)O)c1Oc1ccc(Cl)cc1 [2-(4-chlorophenoxy)-3-aminobenzoic acid] | – | –
4 | < 2 X | Cc1ccc(Sc2ccccc2C(=O)O)c(S(N)(=O)=O)c1 [2-sulfamide-4-methyl-2'-carboxydiphenyl sulfide] | – | –
5 | 2 X | Nc1ccccc1C(=O)c1ccccc1C(=O)O [2-aminobenzophenone-2-carboxylic] | – | –
6 | 2.2 X | O=C(O)c1ccccc1[S+]([O-])c1ccccc1 (centres unmarked) [1-carboxydiphenyl sulfoxide] | – | –
7 | ≥ 2 X | Nc1ccc(C(=O)c2ccccc2C(=O)O)cc1[N+](=O)[O-] [2-(4-amino-3-nitro-benzoyl)benzoic acid] | – | –
8 | < 2 X | COc1cccc(Oc2c(OC)cccc2C(=O)O)c1 [2-(3-methoxyphenoxy)-3-methoxybenzoic acid] | – | –
9 | 2 X | O=C(O)c1ccccc1C(=O)c1ccc(Cl)c([N+](=O)[O-])c1 [2-(4-chloro-3-nitrobenzoyl)benzoic acid] | – | –
10 | 2 X | O=C(O)c1ccccc1C(=O)c1ccc(Cl)cc1 [2-(4-chlorobenzoyl)benzoic acid] | – | –
11 | 3-4 X | O=C(O)c1ccccc1Oc1cccc([N+](=O)[O-])c1 [2-(3-nitrophenoxy)benzoic acid] | – | –
12 | 2.5 X | O=C(O)c1ccccc1C(=O)c1ccccc1 [2-benzoylbenzoic acid] | – | side of the cell membrane from which the compound is effective [3]: effective from only one side of the membrane; also recorded: effective only from the intracellular side of the cell membrane

Second part, the molecule before the results:

Row | SMILES | Approximate Increase in Time Course of Closure [1] | Approximate Decrease in Time Course of Closure [1] | also measured
13 | Cc1ccc(Cl)c(Nc2ccccc2C(=O)O)c1Cl [Meclofenamic acid, reference compound] | – | 2.5 X | –
14 | O=C(O)c1ccc([N+](=O)[O-])cc1Oc1cccc([N+](=O)[O-])c1 | – | – | effect on the maximal level of outward or inward current ([1]; inside-out excised patch voltage clamp, FIG. 3): little or no effect; effect on the closing of the ion channel [1, 4]: slows the closing of the ion channel
15 | O=C(O)c1cccnc1Nc1cccc(C(F)(F)F)c1 [niflumic acid, reference compound] | 2.4 X | – | –
16 | COc1cccc(C(=O)c2cc(OC)ccc2C(=O)O)c1 [4-methoxy-2-(3-methoxy-benzoyl)-benzoic acid] | – | ≤ 2 X | –
17 | CC(C(=O)O)c1cccc(Oc2ccccc2)c1 (centres unmarked) [fenoprofen, reference compound] | 2.2 X | – | –
18 | O=C(O)c1c(Cl)c(Cl)c(Cl)c(Cl)c1C(=O)c1ccccc1 [2-benzoyl-3,4,5,6-tetrachloro-benzoic] | – | ≥ 2 X | –
19 | CC(=O)Nc1ccc(C=Cc2ccc([N+](=O)[O-])cc2S(=O)(=O)O)c(S(=O)(=O)O)c1 [4-nitro-4'-acetamide-2,2'-disulfonate stilbene] | 2 X | – | –
20 | CC(C(=O)O)c1ccc2c(c1)[nH]c1ccc(Cl)cc12 (centres unmarked) [Carprofen, reference compound] | – | 3.2 X | –
21 | CC[N+](CC)(CC)CC [tetraethylammonium] | – | – | steady state blockade of current ([2]; tetraethylammonium 5 mM alone, depolarizing pulse +60 mV): 15%; steady state blockade of current ([2]; tetraethylammonium 5 mM in the presence of 10 mM 2-benzoylbenzoic acid, +60 mV): 16%
22 | CCCCN(CCCC)c1ccc(C(=O)c2ccccc2C(=O)O)c(O)c1 [2-(4-dibutylamino-2-hydroxybenzoyl) benzoic acid] | – | 6.4 X | –
23 | Cc1c(C)c(C)c(C(=O)c2ccccc2C(=O)O)c(C)c1C [2-(2,3,4,5,6-pentamethylbenzoyl) benzoic acid] | – | 2 X | –
24 | O=C(O)c1ccc(Br)cc1Oc1ccccc1 [4-bromo-2-(phenoxy) benzoic acid] | – | ≥ 2 X | –
25 | COc1ccc(Oc2c(C(=O)O)cccc2[N+](=O)[O-])cc1 [2-(4-methoxyphenoxy)-3-nitrobenzoic acid] | 1.5 X | – | –
26 | CCOc1ccc(Nc2cc([N+](=O)[O-])ccc2C(=O)O)cc1 [N-(4-ethoxyphenyl)-4-nitro anthranilic acid] | – | 5-10 X | effect on the closing of the ion channel [1, 4]: speeds the closing of the ion channel; reduction in the maximal level of outward or inward current ([1]; inside-out excised patch voltage clamp, FIG. 4): < 20%
27 | Nc1cc(Cl)ccc1Nc1ccccc1C(=O)O [N-(2-amino-4-chlorophenyl) anthranilic acid] | – | 2.4 X | –
